Source: PMC7719383 (Clinical and Translational Science, 2020)
Where two headings read alike, the source gives them in different places.

What was measured:
[1] = test system: patients with advanced pancreatic cancer; type: in vivo, human
[2] = test system: pSer473 Akt; settings: lowest dose level tested (60 mg once weekly); cited from earlier work
[3] = Plasma pharmacokinetics; type: in vivo, human; settings: for Tmax: median; for effect of co‐administration on exposure: dinaciclib with MK‐2206
[4] = cited from earlier work
[5] = A: Dinaciclib/combination N = 11

NC1(c2ccc(-c3nc4ccn5c(=O)[nH]nc5c4cc3-c3ccccc3)cc2)CCC1 [MK‐2206]
Dose reduction MK‐2206 [1, 5]: 0 (0%) n (%)
Dose reduction MK‐2206 ([1]; B: MK‐2206/combination N = 7): 1 (14%) n (%)
Dose reduction MK‐2206 ([1]; Dose escalation N = 21): 1 (5%) n (%)
maximum tolerated dose ([1]; MK‐2206 p.o. weekly in combination with dinaciclib): 135 mg
pSer473 Akt expression in tumor biopsies [2]: significant reduction
C ss,min ([3]; MK‐2206 alone, Expansion, arm B, MK‐2206 135 mg, dinaciclib 9 mg/m^2, mean ± SD): 48.0 ± 22.7 (7)
Tmax ([3]; MK‐2206 alone, Expansion, arm B, MK‐2206 135 mg, dinaciclib 9 mg/m^2): 4 (2.17–25.17; 7) hour
T 1/2 ([3]; MK‐2206 in combination, Expansion, arm B, dose reduced, MK‐2206 90 mg, dinaciclib 9 mg/m^2, n = 1): 64.5 (1) h
effect of co‐administration on exposure [3]: did not alter
half-life ([3]; human, plasma, oral, 90 mg, T 1/2, MK‐2206 alone, Escalation, level 3, MK‐2206 90 mg, dinaciclib 12 mg/m^2, mean ± SD): 68.3 ± 16.6 h
Tmax ([3]; human, plasma, oral, 90 mg, Tmax, MK‐2206 alone, Escalation, level 3, MK‐2206 90 mg, dinaciclib 12 mg/m^2): 5.97 h
half-life ([3]; human, plasma, oral, 135 mg, T 1/2, MK‐2206 alone, Escalation, level 2.5, MK‐2206 135 mg, dinaciclib 9 mg/m^2, mean ± SD): 56.9 ± 9.7 h
Tmax ([3]; human, plasma, oral, 135 mg, Tmax, MK‐2206 alone, Escalation, level 2.5, MK‐2206 135 mg, dinaciclib 9 mg/m^2): 4.5 h
half-life ([3]; human, plasma, oral, T 1/2, MK‐2206 in combination, Expansion, arm A, MK‐2206 135 mg, dinaciclib 9 mg/m^2, mean ± SD): 69.7 ± 23.1 h
Tmax ([3]; human, plasma, oral, Tmax, MK‐2206 in combination, Expansion, arm A, MK‐2206 135 mg, dinaciclib 9 mg/m^2): 10.2 h
Tmax ([3]; human, plasma, oral, Tmax, MK‐2206 in combination, Expansion, arm B, MK‐2206 135 mg, dinaciclib 9 mg/m^2): 5.13 h
recommended phase II dose ([4]; once weekly): 200 mg

CCc1cnn2c(NCc3ccc[n+]([O-])c3)cc(N3CCCC[C@H]3CCO)nc12 [dinaciclib]
Dose reduction Dinaciclib [1, 5]: 2 (18%) n (%)
Dose reduction Dinaciclib ([1]; B: MK‐2206/combination N = 7): 0 (0%) n (%)
Dose reduction Dinaciclib ([1]; Dose escalation N = 21): 3 (14%) n (%)
maximum tolerated dose ([1]; dinaciclib i.v. weekly in combination with MK‐2206): 9 mg/m^2
association between exposure (Cmax) and race ([3]; African Americans and Asians vs white patients, P = 0.04): lower exposure
effect of co‐administration on exposure [3]: did not alter
recommended phase II dose ([4]; single agent): 12 mg/m^2
